The test system of assay [1] is glomerulonephritis induced by a 30 microgram intravenous injection of clone a84 (IgG2a). As to the kind of experiment: a84 antibody-induced glomerulonephritis animal model, urinary protein levels. In kind it is in vivo, Rat, WKY. The note with it: for % Inhibition of Total Urinary Protein Levels (mg), individual animal / % Inhibition of Total Urinary Protein Levels (mg), Mean: 30 ug a84 antibody iv; for % Inhibition of Total Urinary Protein Levels (mg), Mean: urine day 6-7 (16 h), male WKY rats, group mean. The source says: Study Objective: Glomerulonephritis is a complex disease involving cytokines, cell infiltration, cell proliferation, and rapid deterioration of renal function. This animal model will provide a relatively short term and quantitative measurement of glomerulonephritis. This study was designed to determine if a compound of Formula I will reduce glomerulonephritis induced by a 30 microgram intravenous injection of clone a84 (IgG2a). This monoclonal antibody induces disease by binding to a glomerular basement membrane protein. Disease progression is monitored in two ways in this model. First, the levels of protein in excreted urine are assessed. This readout serves as a rapid marker of renal diseased. The second mechanism by which disease is monitored is by examining the substructure of the kidney via histological examination.
Aim of Study: Glomerulonephritis is a complex disease involving cytokines, cell infiltration, cell proliferation, and rapid deterioration of renal function. This animal model provided a relatively short term and quantitative measurement of glomerulonephritis. This study was designed to determine if the compound of Formula I as hydrochloride salt will reduce glomerulonephritis induced by a 30 microgram intravenous injection of clone a84 (IgG2a).
Species, Strain, Supplier: Rat, WKY, Charles River
Duration and Frequency of Treatment: Animals in groups B through F and H through L received a 30 ug iv injection of a84 antibody on day 0 approximately 1 hour post dose.
Route of Administration: Oral gavage
Duration and Frequency of Treatment: Each animal in groups C, D, and E received an A.M. and P.M. dose approximately 8 hours apart from day 0 through day 6. Each animal in groups I, J, and K received an A.M. and P.M. dose approximately 8 hours apart from day 0 through day 3. Dosing was initiated on day 0 approximately 1 hour prior to a84 antibody injection.
Route of Administration: intraperitoneal (ip)
Duration and Frequency of Treatment: Each animal in groups F and L received an A.M. dose on day 0 approximately 1 hour prior to a84 antibody injection and a PM dose on day 3.
Kit: Rat Urinary Protein Assay Kit
Study Parameters Rat urinary proteins was measured over approximately a 16 hour period from day 6 to day 7. The kidneys were harvested for histological evaluation and for possible mRNA isolation.
Evaluation Method: Rat urinary protein levels was determined by the kit described in section 2.3.
Chronology of Examinations and/or Sampling: 1) Rats were placed into six groups of eight, six groups of 4, and one group of 3 based on compound and dose administered: Group A Vehicle (0.5% methyl cellulose containing 0.2% tween 80)+IV saline injection n=8, Group B Vehicle (0.5% methyl cellulose containing 0.2% tween 80)+IV a84 antibody injection n=8, Group C Compound of Formula I as hydrochloride salt 3.0 mg/kg+IV a84 antibody injection n=8, Group D SAR397769A 10 mg/kg+IV a84 antibody injection n=8, Group E Compound of Formula I as hydrochloride salt 30 mg/kg+IV a84 antibody injection n=8, Group F Enbrel 5.0 mg/kg+IV a84 antibody injection, Group G Vehicle (0.5% methyl cellulose containing 0.2% tween 80)+IV saline injection n=4, Group H Vehicle (0.5% methyl cellulose containing 0.2% tween 80)+IV a84 antibody injection n=4, Group I Compound of Formula I as hydrochloride salt 3.0 mg/kg+IV a84 antibody injection n=4, Group J SAR397769A 10 mg/kg+IV a84 antibody injection n=4, Group K Compound of Formula I as hydrochloride salt 30 mg/kg+IV a84 antibody injection n=4, Group L Enbrel 5.0 mg/kg+IV a84 antibody injection n=4, and Group M Naïve n=3. 2) On day 0, rats were dosed one hour prior to a84 antibody injection. Animals in groups A through E, and G through K were dosed orally. Dosing continued twice daily in groups A through E from day 0 to day 6 with approximately 8 hours between doses. Dosing continued twice daily in groups G through K from day 0 to day 3 with approximately 8 hours between doses. […]

The next assay addresses Syk kinase (Homo sapiens, UniProt P43405). The following applies: as described in WO2008/033798; cited from earlier work.

“And” between values parts separate entries of the source, which are not always exact repeats. Equal values may be shown once.

As to `CCc1c(-c2ccc(C(C)(C)O)cc2)[nH]c2nccnc12` [Exp Cmpd, 2-[4-(7-Ethyl-5H-pyrrolo [2,3-b]pyrazin-6-yl)-phenyl]-propan-2-ol], the “% Inhibition of Total Urinary Protein Levels (mg), individual animal” value in assay [1] (3.0 mg/kg oral gavage twice daily day 0-6, single animals 1-8) is −0.60% and 9.50% and −5.97% and 54.11% and 43.80% and 42.33% and 65.58% and −3.63%; in assay [1] (10 mg/kg oral gavage twice daily day 0-6, single animals 1-8), 46.17% and 64.93% and 71.77% and 76.96% and 81.22% and 43.56% and 35.61% and 11.63%; in assay [1] (30 mg/kg oral gavage twice daily day 0-6, single animals 1-8) it was 84.66% and 85.65% and 79.73% and 86.92% and 88.28% and 84.82% and 81.26% and 92.32%. Moreover, the “% Inhibition of Total Urinary Protein Levels (mg), Mean” value worked out at 25.64% in assay [1] (3.0 mg/kg oral gavage twice daily day 0-6); 25% in assay [1] (3.0 mg/kg oral gavage twice daily day 0-6, listed as compound of Formula I); 53.98% in assay [1] (10 mg/kg oral gavage twice daily day 0-6); 53% in assay [1] (10 mg/kg oral gavage twice daily day 0-6, listed as compound of Formula I); 85.46% in assay [1] (30 mg/kg oral gavage twice daily day 0-6); 85% in assay [1] (30 mg/kg oral gavage twice daily day 0-6, listed as compound of Formula I). The “reduction of urinary protein levels compared with positive control (Enbrel)” value in assay [1] (30 mg/kg versus Enbrel 5.0 mg/kg) is on record as “significantly better than the positive control”. In addition, the Syk kinase inhibition entry at Syk kinase is given as “Syk kinase inhibitor”.
Regarding Enbrel [reference compound], the “% Inhibition of Total Urinary Protein Levels (mg), individual animal” value in assay [1] (5.0 mg/kg ip on day 0 and day 3, single animals 1-7) was 50.26% and 33.67% and 61.10% and 46.54% and 58.91% and 63.92% and 22.67%. In assay [1] (5.0 mg/kg ip on day 0 and day 3), the “% Inhibition of Total Urinary Protein Levels (mg), Mean” value was determined as 48.15%.

The values above are taken from patent US20110251219A1, “TREATMENT FOR GLOMERULONEPHRITIS WITH 2-[4-(7-ETHYL-5H-PYRROLO[2,3-B]PYRAZIN-6-YL)PHENYL]PROPAN-2-OL” (SANOFI, priority 2008, published 2011).
